pIC50: −log10 of the molar value.

The test system of one data set is Male Lewis rats. Kind of data set: Rheumatoid Arthritis Protocol (rat adjuvant arthritis, paw swelling). Type of data set: in vivo. The following applies: 60 mg/Kg/day, sq, bid, d1–14. As to the method:
Male Lewis rats (150–175 g) from Charles River Laboratories were anesthetized on day 0 with 3–5% isoflurane anesthesia while the tail base was shaved and adjuvant mixture was injected. Fifty μL of adjuvant (10 mg/ml M. butyricum in mineral oil) was injected subcutaneously into two sites at the tail base. Paw swelling was monitored using a plethysmometer (UGO Basile), after shaving each leg to the level of the Achilles tendon to mark the level of immersion. A baseline paw measurement for both hindpaws was taken between d2-d5 and a second measurement was taken on day 7–8. Onset of paw swelling occurred rapidly between d9–11 and daily measurements were performed every weekday between d9 and day 15. Compounds of the invention and vehicles were dosed either prophylactically (d1–14), or therapeutically (d9–14) after swelling was confirmed. Solutions were injected subcutaneously or given orally by gavage 1–2 times per day. From day 0, rats were weighed every 2–3 days and overall health was monitored. Plasma drug levels, if desired, were measured in tail-vein derived blood samples taken on day 14. On day 15, blood samples were obtained by cardiac puncture, rats were euthanized with CO2, selected organs removed and both hindpaws were amputated and placed in 10% buffered formalin for histopathological analysis. See Biological Table 2.

For another data set, the system named is Balb/C mice. Kind of data set: Asthma Protocol (ovalbumin sensitized and challenged mice, bronchoaveolar lavage). Type of data set: in vivo, mouse. The following applies: sc, daily dosing at 100 mg/kg from day 0–13, lavage fluid. The protocol:
Balb/C mice (6–8 weeks old) are sensitized to ovalbumin (ova) (8 ug ova absorbed in 3.3 mg Alum inject) on days 0 and 5. On day 12, the mice were aerosol challenged with 0.5% ovalbumin dissolved in sterile saline for 1 hr in the AM, and then again in the PM (at least 4 hr apart). On day 14, the mice were anesthetized with ketamine/xylazine/acepromazine cocktail, exsanguinated, and then euthanized. Following blood collection, bronchoaveolar lavage was performed on each animal. Total cell counts were conducted on the lavage fluid, which was subsequently diluted with cell media 1:1. Slides of the lavage fluid were made by spinning the samples with a cytospin centrifuge. Slides were airdried and stained with x. Cell differentials of the lavage fluid were completed at the conclusion of the study. All compounds except Example 2 were well tolerated with no body weight loss throughout the course of the study. Statistical analysis involved ANOVA and Tukey-Kramer post hoc tests. Compounds were administered except where noted by subcutaneous injection once daily from day 0–13. The formulations used contained various mixtures of the following excipients (pharmasolve, cremophor RH 40, tween 80, PEG 300). See Biological Table 3

Another data set relates to VCAM-1. Kind of data set: In Vitro VCAM-1 Assay (TNF-α stimulated HAEC or HPAEC, cell ELISA). It is filed as cell-based, human. The following applies: TNF-α (1 ng/ml) stimulated HAEC or HPAEC, approximately 16 hours. The method in brief: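 Primary human aortic or pulmonary endothelial cells (below passage 9) stimulated with TNF-α (1 ng/ml) plus compound (four concentrations, ≤0.25% DMSO) for about 16 h. Surface VCAM-1 detected by cell ELISA (HRP/TMB, OD 450 nm). IC50 taken as the concentration giving 50% inhibition of the TNF-α-only response.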
In general terms: An ELISA detects its analyte on a solid surface through an enzyme-linked reagent.

Take `COc1cc(OC)c(-c2cc3ccccc3s2)cc1/C=C/C(=O)c1ccc(C(=O)O)cc1` [Example 3, 4-[3E-(5-Benzo[b]thien-2-yl-2,4-dimethoxyphenyl)-acryloyl]-benzoic acid]: the results for the “% Inhibition” value in the data set on Male Lewis rats and with Balb/C mice were 96% and 79%, respectively.
For `COc1cc(OC)c(-c2cc3ccccc3n2C(=O)OC(C)(C)C)cc1/C=C/C(=O)c1ccc(C(=O)O)cc1` [Example 36, 2-{5-[3-(4-Carboxy-phenyl)-3-oxo-E-propenyl]-2,4-dimethoxy-phenyl}-indole-1-carboxylic acid tert-butyl ester], the melting point (in general, the temperature, or range, at which the solid turns liquid) was in the range of 182 to 183 °C. Further, in the data set with VCAM-1 (Homo sapiens, 16 h), the pIC50 – broadly, the negative decadic logarithm of the IC50, by convention in mol/L – is over 5.30. In addition, in the data set on Balb/C mice, the % Inhibition (usually the percentage by which the read-out fell short of the control) came to 71%.
Taken in the same sequence, the figures for `COc1cc(OCC(CO)CO)c(/C=C/C(=O)c2ccc(S(N)(=O)=O)cc2)cc1-c1cccs1` [Example 86, 4-{3E-[2-(3-Hydroxy-2-hydroxymethyl-propoxy)-4-methoxy-5-thiophen-2-yl-phenyl]-acryloyl}-benzenesulfonamide] were 123 to 124 °C, over 5.30 and 48%.
On to `COc1cc(OC)c(-c2cnccn2)cc1/C=C/C(=O)c1ccc(C(=O)O)cc1` [Example 46, 4-[3E-(2,4-Dimethoxy-5-pyrazin-2-yl-phenyl)-acryloyl]-benzoic acid], for which the melting point was 238 °C (dec.). In the data set with VCAM-1 (Homo sapiens, 16 h), the negative logarithm of the IC50 (pIC50) was over 5.00.
The like results for `COc1cc(OC)c(-c2cc3ccccc3s2)cc1/C=C/C(=O)c1ccc(C(=O)NCC(F)(F)F)cc1` [Example 91, 4-[3E-(5-Benzo[b]thiophen-2-yl-2,4-dimethoxy-phenyl)-acryloyl]-N-(2,2,2-trifluoro-ethyl)-benzamide] were, in that order, 215 to 217 °C and over 5.30.
Taken in the same sequence, the figures for `O=C(/C=C/c1ccc(-c2cccs2)cc1)c1ccc2c(c1)OC(CO)(CO)O2` [Example 2, 1-(2,2-Bis-hydroxymethyl-benzo[1,3]dioxol-5-yl)-3E-(4-thiophen-2-yl-phenyl)-propenone] were 166 to 168 °C and over 5.30.
Taken in the same sequence, the figures for `COc1cc(OC)c(-c2cccs2)cc1/C=C/C(=O)c1cccc(C(=O)O)c1` [Example 43, 3-[3E-(2,4-Dimethoxy-5-thiophen-2-yl-phenyl)-acryloyl]-benzoic acid] were 179 to 182 °C and over 5.30.
Consider `COc1cc(OC(C)(C)C(=O)O)c(-c2cccs2)cc1/C=C/C(=O)c1ccc(C(=O)O)cc1` [Example 47, 4-{3E-[4-(1-Carboxy-1-methyl-ethoxy)-2-methoxy-5-thiophen-2-yl-phenyl]-acryloyl}-benzoic acid], for which the melting point is 135 to 137 °C. In the data set with VCAM-1 (Homo sapiens, 16 h), this molecule had a pIC50 of under 5.00.
Consider `COc1cc(O)c(/C=C/C(=O)c2ccc(C(=O)O)cc2)cc1-c1cccs1` [Example 58, 4-[3E-(2-Hydroxy-4-methoxy-5-thiophen-2-yl-phenyl)-acryloyl]-benzoic acid], for which the melting point is 125 °C (dec.). The pIC50 in the data set with VCAM-1 (Homo sapiens, 16 h) was under 5.00.
`NS(=O)(=O)c1ccc(C(=O)/C=C/c2ccc(-c3cccs3)cc2)cc1` [Example 26, 4-[3E-(4-Thiophen-2-yl-phenyl)-acryloyl]-benzenesulfonamide] came in with a melting point of over 245 °C. This molecule also had a pIC50 in the data set with VCAM-1 (Homo sapiens, 16 h) of under 5.00.
Taken in the same sequence, the figures for `COc1cc(OC)c(-c2cc3ccccc3[nH]2)cc1/C=C/C(=O)c1ccc(S(N)(=O)=O)cc1` [Example 84, 4-{3E-[5-(1H-Indol-2-yl)-2,4-dimethoxy-phenyl]-acryloyl}-benzenesulfonamide] were 185 to 187 °C and over 5.30.
The like results for `COc1ccc(/C=C/C(=O)c2ccc(C(=O)O)cc2)c(OC)c1-c1cc2ccccc2s1` [Example 44, 4-[3E-(3-Benzo[b]thiophen-2-yl-2,4-dimethoxy-phenyl)-acryloyl]-benzoic acid] were, in that order, 237 °C (dec.) and over 6.00.
The like results for `COC(=O)c1ccc(C(=O)/C=C/c2cc(-c3cc4ccccc4s3)c(OC)cc2OC)cc1` [Example 118, 4-[3E-(5-Benzo[b]thiophen-2-yl-2,4-dimethoxy-phenyl)-acryloyl]-benzoic acid methyl ester] were, in that order, 149 to 151 °C and over 5.00.
`COc1ccc(/C=C/C(=O)c2ccccc2C(=O)O)cc1-c1cccs1` [Example 48, 2-[3E-(4-Methoxy-3-thiophen-2-yl-phenyl)-acryloyl]-benzoic acid] came in with a melting point of 79 to 81 °C. For the same molecule, the negative logarithm of the IC50 (pIC50) with VCAM-1 (Homo sapiens, 16 h) was over 5.00.
For the molecule `COc1cc(OC)c(-c2cc3ccccc3s2)cc1/C=C/C(=O)c1ccccc1C(=O)[O-].[Na+]` [Example 9, 2-[3E-(5-Benzo[b]thiophen-2-yl-2,4-dimethoxy-phenyl)-acryloyl]-benzoic acid, sodium salt], the melting point is 214 to 217 °C (dec.). Moreover, in the data set with VCAM-1 (sodium salt), the negative logarithm of the IC50 (pIC50) is over 5.30.
In turn, `COc1cc(OC)c(-c2cc3ccccc3s2)cc1/C=C/C(=O)c1ccc(C(=O)NC(=O)C(C)C)cc1` [Example 96, 4-[3E-(5-Benzo[b]thiophen-2-yl-2,4-dimethoxy-phenyl)-acryloyl]-N-isobutyryl-benzamide] had a melting point of 208 to 209 °C. Also, the negative logarithm of the IC50 (pIC50) in the data set on VCAM-1 (Homo sapiens, 16 h) was over 5.30.
With `O=C(O)c1ccc(C(=O)/C=C/c2ccc(-c3nccs3)cc2)cc1` [Example 5, 4-[3E-(4-Thiazol-2-yl-phenyl)acryloyl]-benzoic acid], the melting point was in the range of 232 to 235 °C. This molecule also gave a pIC50 in the data set with VCAM-1 (Homo sapiens, 16 h) of over 6.00.
The like results for `COc1cc(OC(C)(C)C(=O)O)c(-c2cccs2)cc1/C=C/C(=O)c1ccc(NS(C)(=O)=O)cc1` [Example 100, 2-{4-[3-(4-Methanesulfonylamino-phenyl)-3-oxo-E-propenyl]-5-methoxy-2-thiophen-2-yl-phenoxy}-2-methyl-propionic acid] were, in that order, 181 to 183 °C and under 5.00.
Taken in the same sequence, the figures for `COc1cc(OC)c(-c2cc3ccccc3n2C)cc1/C=C/C(=O)c1ccc(S(N)(=O)=O)cc1` [Example 117, 4-{3E-[2,4-Dimethoxy-5-(1-methyl-1H-indol-2-yl)-phenyl]-acryloyl}-benzenesulfonamide] were 148 to 150 °C and over 5.30.
The like results for `COc1cc(OC)c(/C=C/C(=O)c2ccc(C(=O)O)cc2)c(-c2cccs2)c1` [Example 39, 4-[3E-(2,4-Dimethoxy-6-thiophen-2-yl-phenyl)-acryloyl]-benzoic acid] were, in that order, 231 °C (dec.) and under 5.00.
Consider `COc1cc(OCC(CO)CO)c(-c2cccs2)cc1/C=C/C(=O)c1ccc(S(N)(=O)=O)cc1` [Example 106, 4-{3E-[4-(3-Hydroxy-2-hydroxymethyl-propoxy)-2-methoxy-5-thiophen-2-yl-phenyl]-acryloyl}-benzenesulfonamide], for which the melting point lay in the range of 191 to 192 °C. In the data set with VCAM-1 (Homo sapiens, 16 h), the pIC50 is over 5.00.
Taken in the same sequence, the figures for `O=C(O)c1ccc(C(=O)/C=C/c2ccc(-c3cccs3)cc2)cc1` [Example 10, 4-[3E-(4-Thiophen-2-yl-phenyl)-acryloyl]-benzoic acid] were over 260 °C and over 5.30.
`COc1cc(OCC(CO)CO)c(/C=C/C(=O)c2ccc(C(=O)O)cc2)cc1-c1cccs1` [Example 64, 4-{3E-[2-(3-Hydroxy-2-hydroxymethyl-propoxy)-4-methoxy-5-thiophen-2-yl-phenyl]-acryloyl}-benzoic acid]: the melting point fell in the range of 219 to 220 °C. This molecule also showed a pIC50 with VCAM-1 (Homo sapiens, 16 h) of under 5.00.
Taken in the same sequence, the figures for `COc1cc(/C=C/C(=O)c2ccc3[nH]ccc3c2)cc(-c2cccs2)c1OC` [Example 27, 3E-(3,4-Dimethoxy-5-thiophen-2-yl-phenyl)-1-(1H-indol-5-yl)-propenone] were 184.5 to 186 °C and over 5.30.
Taken in the same sequence, the figures for `COc1cc(OC)c(-c2nn[nH]n2)cc1/C=C/C(=O)c1ccc(C(=O)O)cc1` [Example 75, 4-{3E-[2,4-Dimethoxy-5-(2H-tetrazol-5-yl)-phenyl]-acryloyl}-benzoic acid] were 218 °C (dec.) and under 5.00.

The values are drawn from patent US7094801B2, “Chalcone derivatives and their use to treat diseases” (Atherogenics, Inc., priority 2001, dated 2006).
